Test results taken from patent publication US9598440B2, “Inhibitors of IRAK4 activity” (MERCK SHARP & DOHME CORP., priority 2012, dated 2017).

Target: IRAK4 (Homo sapiens (Human), UniProt Q9NWZ3)
Experiment: Determination of IRAK4 kinase activity (IMAP fluorescence polarization, phosphorylation of fluorescent peptide substrate)
Assay type: biochemical
Settings: 0.5 nM GST tagged IRAK4, 100 nM peptide substrate RP7030, 100 μM ATP, 30 minutes at 25° C.
Outline: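 GST-tagged IRAK4 (0.5 nM) phosphorylated 100 nM fluorescent peptide substrate with 100 µM ATP in Tris-HCl pH 7.2, 1 mM MgCl2, 1 mM DTT, 0.01% Tween 20 for 30 min at 25 °C. Phosphorylation read by IMAP nanoparticle binding as fluorescence polarization increase.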

Chain of IRAK4 (Q9NWZ3 whole entry): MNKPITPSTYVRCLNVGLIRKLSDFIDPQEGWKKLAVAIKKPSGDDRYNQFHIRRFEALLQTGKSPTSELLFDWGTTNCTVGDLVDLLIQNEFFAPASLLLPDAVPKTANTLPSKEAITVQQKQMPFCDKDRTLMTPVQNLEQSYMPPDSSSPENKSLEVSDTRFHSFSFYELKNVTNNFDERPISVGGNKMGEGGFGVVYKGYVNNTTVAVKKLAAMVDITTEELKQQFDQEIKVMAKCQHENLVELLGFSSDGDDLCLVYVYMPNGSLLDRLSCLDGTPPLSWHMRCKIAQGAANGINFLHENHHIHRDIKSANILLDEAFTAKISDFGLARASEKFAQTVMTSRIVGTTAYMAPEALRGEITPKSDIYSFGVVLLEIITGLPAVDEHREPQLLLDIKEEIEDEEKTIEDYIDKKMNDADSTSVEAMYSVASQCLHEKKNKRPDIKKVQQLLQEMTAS

IC50 [nM]	SMILES
6	OC[C@H]1C[C@@H](Nc2nc(Nc3cncnc3)ncc2-c2nc3ccncc3s2)[C@H](O)[C@@H]1O [Example 74, 6-(((1R,2S,3R,4R)-2,3-dihydroxy-4-(hydroxymethyl)cyclopentyl)amino)-2-(pyrimidin-5-ylamino)-5-(thiazolo[5,4-c]pyridin-2-yl)pyrimidine]
2	COc1cc(Nc2ncc(-c3nc4ccncc4s3)c(N[C@@H]3C[C@H](CO)[C@@H](O)[C@H]3O)n2)ccn1 [Example 75, 6-(((1R,2S,3R,4R)-2,3-dihydroxy-4-(hydroxymethyl)cyclopentyl)amino)-2-((2-methoxypyridin-4-yl)amino)-5-(thiazolo[5,4-c]pyridin-2-yl)pyrimidine]
560	OC[C@H]1C[C@@H](Nc2nc(NC3CCC3)ncc2-c2nc3cnccc3s2)[C@H](O)[C@@H]1O [Example 76, 2-(cyclobutylamino)-6-(((1R,2S,3R,4R)-2,3-dihydroxy-4-(hydroxymethyl)cyclopentyl)amino)-5-(thiazolo[4,5-c]pyridin-2-yl)pyrimidine]
8	Cc1cc(Nc2ncc(-c3nc4ccncc4s3)c(N[C@@H]3C[C@H](CO)[C@@H](O)[C@H]3O)n2)ccn1 [Example 77, 6-(((1R,2S,3R,4R)-2,3-dihydroxy-4-(hydroxymethyl)cyclopentyl)amino)-2-((2-methylpyridin-4-yl)amino)-5-(thiazolo[5,4-c]pyridin-2-yl)pyrimidine]
13	OC[C@H]1C[C@@H](Nc2nc(Nc3cccnc3)ncc2-c2nc3ccncc3s2)[C@H](O)[C@@H]1O [Example 78, 6-(((1R,2S,3R,4R)-2,3-dihydroxy-4-(hydroxymethyl)cyclopentyl)amino)-2-(pyridin-3-ylamino)-5-(thiazolo[5,4-c]pyridin-2-yl)pyrimidine]
8	Cc1cc(Nc2ncc(-c3nc(-c4ccccc4)cs3)c(N[C@@H]3C[C@H](CO)[C@@H](O)[C@H]3O)n2)ccn1 [Example 79, 6-(((1R,2S,3R,4R)-2,3-dihydroxy-4-(hydroxymethyl)cyclopentyl)amino)-2-((2-methylpyridin-4-yl)amino)-5-(4-phenylthiazol-2-yl)pyrimidine]
98	COc1cc(Nc2ncc(-c3nc(-c4ccccc4)cs3)c(N[C@@H]3C[C@H](CO)[C@@H](O)[C@H]3O)n2)ccn1 [Example 80, 6-(((1R,2S,3R,4R)-2,3-dihydroxy-4-(hydroxymethyl)cyclopentyl)amino)-2-((2-methoxypyridin-4-yl)amino)-5-(4-phenylthiazol-2-yl)pyrimidine]
94	OC[C@H]1C[C@@H](Nc2nc(Nc3cncnc3)ncc2-c2nc(-c3ccccc3)cs2)[C@H](O)[C@@H]1O [Example 81, 6-(((1R,2S,3R,4R)-2,3-dihydroxy-4-(hydroxymethyl)cyclopentyl)amino)-5-(4-phenylthiazol-2-yl)-2-(pyrimidin-5-ylamino)pyrimidine]
3210	OC[C@H]1C[C@@H](Nc2nc(Nc3cccnc3)ncc2-c2nc(-c3ccccc3)cs2)[C@H](O)[C@@H]1O [Example 82, 6-(((1R,2S,3R,4R)-2,3-dihydroxy-4-(hydroxymethyl)cyclopentyl)amino)-5-(4-phenyithiazol-2-yl)-2-(pyridin-3-ylamino)pyrimidine]
1.03	Nc1ncc(-c2nc3cccnc3s2)c(N[C@@H]2C[C@H](CO)[C@@H](O)[C@H]2O)n1 [Example 83, (1R,2S,3R,5R)-3-((2-amino-5-(thiazolo[5,4-b]pyridin-2-yl)pyrimidin-4-yl)amino)-5-(hydroxymethyl)cyclopentane-1,2-diol]
430	Cc1nc(Nc2ccnc(F)c2)nc(N[C@@H]2C[C@H](CO)[C@@H](O)[C@H]2O)c1-c1nc2ccccc2s1 [Example 86, (1R,2S,3R,5R)-3-((5-(benzo[d]thiazol-2-yl)-2-((2-fluoropyridin-4-yl)amino)-6-methylpyrimidin-4-yl)amino)-5-(hydroxymethyl)cyclopentane-1,2-diol]
119	Cc1cc(Nc2nc(C)c(-c3nc4ccccc4s3)c(N[C@@H]3C[C@H](CO)[C@@H](O)[C@H]3O)n2)cc(C)n1 [Example 87, (1R,2S,3R,5R)-3-((5-(benzo[d]thiazol-2-yl)-2-((2,6-dimethylpyridin-4-yl)amino)-6-methylpyrimidin-4-yl)amino)-5-(hydroxymethyl)cyclopentane-1,2-diol]
6370	Cc1nc(Nc2ccc(Cl)cc2)nc(N[C@@H]2C[C@H](CO)[C@@H](O)[C@H]2O)c1-c1nc2ccccc2s1 [Example 88, (1R,2S,3R,5R)-3-((5-(benzo[d]thiazol-2-yl)-2-((4-chlorophenyl)amino)-6-methylpyrimidin-4-yl)amino)-5-(hydroxymethyl)cyclopentane-1,2-diol]
6090	Cc1nc(NCCCN2CCN(C)CC2)nc(N[C@@H]2C[C@H](CO)[C@@H](O)[C@H]2O)c1-c1nc2ccccc2s1 [Example 89, (1R,2S,3R,5R)-3-((5-(benzo[d]thiazol-2-yl)-6-methyl-2-((3-(4-methylpiperazin-1-yl)propyl)amino)pyrimidin-4-yl)amino)-5-(hydroxymethyl)cyclopentane-1,2-diol]
5030	Cc1nc(NC2CC2)nc(N[C@@H]2C[C@H](CO)[C@@H](O)[C@H]2O)c1-c1nc2ccccc2s1 [Example 90, (1R,2S,3R,5R)-3-((5-(benzo[d]thiazol-2-yl)-2-(cyclopropylamino)-6-methylpyrimidin-4-yl)amino)-5-(hydroxymethyl)cyclopentane-1,2-diol]
11400	Cc1nc(N2CCC(N)CC2)nc(N[C@@H]2C[C@H](CO)[C@@H](O)[C@H]2O)c1-c1nc2ccccc2s1 [Example 92, (1R,2S,3R,5R)-3-((2-(4-aminopiperidin-1-yl)-5-(benzo[d]thiazol-2-yl)-6-methylpyrimidin-4-yl)amino)-5-(hydroxymethyl)cyclopentane-1,2-diol]
13100	Cc1nc(NCC2CCNCC2)nc(N[C@@H]2C[C@H](CO)[C@@H](O)[C@H]2O)c1-c1nc2ccccc2s1 [Example 93, (1R,2S,3R,5R)-3-((5-(benzo[d]thiazol-2-yl)-6-methyl-2-((piperidin-4-ylmethyl)amino)pyrimidin-4-yl)amino)-5-(hydroxymethyl)cyclopentane-1,2-diol]
870	COc1cccc(Nc2nc(C)c(-c3nc4ccccc4s3)c(N[C@@H]3C[C@H](CO)[C@@H](O)[C@H]3O)n2)c1 [Example 94, (1R,2S,3R,5R)-3-((5-(benzo[d]thiazol-2-yl)-2-((3-methoxyphenyl)amino)-6-methylpyrimidin-4-yl)amino)-5-(hydroxymethyl)cyclopentane-1,2-diol]
4650	Cc1nc(N)nc(N[C@@H]2C[C@H](CO)[C@@H](O)[C@H]2O)c1-c1nc(Br)cs1 [Example 95, (1R,2S,3R,5R)-3-((2-amino-5-(4-bromothiazol-2-yl)-6-methylpyrimidin-4-yl)amino)-5-(hydroxymethyl)cyclopentane-1,2-diol]
11300	Cc1nc(Nc2ccccn2)nc(N[C@@H]2C[C@H](CO)[C@@H](O)[C@H]2O)c1-c1nc2ccccc2s1 [Example 97, (1R,2S,3R,5R)-3-((5-(benzo[d]thiazol-2-yl)-6-methyl-2-(pyridin-2-ylamino)pyrimidin-4-yl)amino)-5-(hydroxymethyl)cyclopentane-1,2-diol]
948	Cc1nc(N2CCC(C)CC2)nc(N[C@@H]2C[C@H](CO)[C@@H](O)[C@H]2O)c1-c1nc2ccccc2s1 [Example 98, (1R,2S,3R,5R)-3-((5-(benzo[d]thiazol-2-yl)-6-methyl-2-(4-methylpiperidin-1-yl)pyrimidin-4-yl)amino)-5-(hydroxymethyl)cyclopentane-1,2-diol]
292	Cc1nc(Nc2cccnc2)nc(N[C@@H]2C[C@H](CO)[C@@H](O)[C@H]2O)c1-c1nc2ccccc2s1 [Example 99, (1R,2S,3R,5R)-3-((5-(benzo[d]thiazol-2-yl)-6-methyl-2-(pyridin-3-ylamino)pyrimidin-4-yl)amino)-5-(hydroxymethyl)cyclopentane-1,2-diol]
138	Cc1cc(Nc2nc(C)c(-c3nc4ccccc4s3)c(N[C@@H]3C[C@H](CO)[C@@H](O)[C@H]3O)n2)ccn1 [Example 100, (1R,2S,3R,5R)-3-((5-(benzo[d]thiazol-2-yl)-6-methyl-2-((2-methylpyridin-4-yl)amino)pyrimidin-4-yl)amino)-5-(hydroxymethyl)cyclopentane-1,2-diol]
992	Cc1nc(N)nc(N[C@@H]2C[C@H](CO)[C@@H](O)[C@H]2O)c1-c1nc2ccccc2o1 [Example 101, (1R,2S,3R,5R)-3-((2-amino-5-(benzo[d]oxazol-2-yl)-6-methylpyrimidin-4-yl)amino)-5-(hydroxymethyl)cyclopentane-1,2-diol]
142	Cc1nc(Nc2cccc(C(N)=O)c2)nc(N[C@@H]2C[C@H](CO)[C@@H](O)[C@H]2O)c1-c1nc2ccccc2s1 [Example 102, 3-((5-(benzo[d]thiazol-2-yl)-4-(((1R,2S,3R,4R)-2,3-dihydroxy-4-(hydroxymethyl)cyclopentyl)amino)-6-methylpyrimidin-2-yl)amino)benzamide]
243	Cc1nc(Nc2ccc(O)cc2)nc(N[C@@H]2C[C@H](CO)[C@@H](O)[C@H]2O)c1-c1nc2ccccc2s1 [Example 103, (1R,2S,3R,5R)-3-((5-(benzo[d]thiazol-2-yl)-2-((4-hydroxyphenyl)amino)-6-methylpyrimidin-4-yl)amino)-5-(hydroxymethyl)cyclopentane-1,2-diol]
219	Cc1nc(Nc2cccc(O)c2)nc(N[C@@H]2C[C@H](CO)[C@@H](O)[C@H]2O)c1-c1nc2ccccc2s1 [Example 104, (1R,2S,3R,5R)-3-((5-(benzo[d]thiazol-2-yl)-2-((3-hydroxyphenyl)amino)-6-methylpyrimidin-4-yl)amino)-5-(hydroxymethyl)cyclopentane-1,2-diol]
